The results in this text go back to ChEMBL document CHEMBL1201862, “PubChem BioAssay data set” (2004).

What all share (test): NCI tumour cell line growth inhibition, 48 h
Assay [1] has as its system NCI-H522.
Assay [2] relates to IGROV-1.
For assay [3], the system named is SNB-75.
The test system of assay [4] is SK-MEL-5.
Assay [5] concerns COLO 205.
Assay [6] relates to A549.
Assay [7] relates to TK-10.
In assay [8] the test system is DU-145.
For assay [9], the system named is CCRF-CEM.
The test system of assay [10] is SF-268.
Assay [11] has as its system MOLT-4.
The test system of assay [12] is MDA-N.
In assay [13] the test system is OVCAR-4.
Assay [14] concerns UACC-62.
Assay [15] has as its system OVCAR-5.
The subject of assay [16] is EKVX.
Assay [17] concerns HCC 2998.
Assay [18] concerns KM12.
Assay [19] has as its system UO-31.
Assay [20] relates to 786-0.

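Interpolation was linear, between the two tested concentrations surrounding the appropriate level; five concentrations were tested over 48 hours in 96-well plates. Abbreviation: GI50, concentration required for 50% inhibition of growth.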 Activity calls are given as the source filed them. Rule as the data show it: active = GI50 up to about 1.1 µM and inactive = higher.

For `O=C(N/N=C/c1ccc([N+](=O)[O-])cc1)Nc1ccc(Br)cc1`, the GI50 in assay [1] was 64.7 µM (inactive); in assay [2], 55.5 µM (inactive); in assay [3] it was > 100 µM (inactive); in assay [4] it was 51.6 µM (inactive); in assay [5], 63.2 µM (inactive); in [6], > 100 µM (inactive). The GI50 in [7] was > 100 µM (inactive); in assay [8], 47.9 µM (inactive); in assay [9], 23.4 µM (inactive); in assay [10] it was 52.2 µM (inactive); in assay [11], 36.4 µM (inactive); in [12] it was 44.6 µM (inactive). In addition, the GI50 in assay [13] was 49 µM (inactive); in assay [14], 15.3 µM (inactive); in [15] it was > 100 µM (inactive); in assay [16], 99.1 µM (inactive); in [17], 26.5 µM (inactive); in assay [18] it was > 100 µM (inactive). For the same molecule, the figures for the GI50 in assay [19] and in [20] were > 100 µM (inactive) and 84.7 µM (inactive), respectively.
Consider `C=C(C)C1CC=C(C)C2(C1)OCC(C)(C)C(C)O2` (stereo not given), for which the GI50 in assay [1] is 17.7 µM (inactive); in assay [2], 22.9 µM (inactive); in [3], 22 µM (inactive); in assay [4] it was 15.2 µM (inactive); in assay [5], 18.1 µM (inactive); in assay [6] it was 17.3 µM (inactive). The GI50 in [7] is 47.4 µM (inactive); in assay [8], 31 µM (inactive); in assay [9] it was 24.7 µM (inactive); in assay [10], 19.8 µM (inactive); in assay [11] it was 20.1 µM (inactive); in assay [12], 21 µM (inactive). Further, the GI50 was 17.1 µM (inactive) in assay [13]; 15.8 µM (inactive) in assay [14]; 19.3 µM (inactive) in assay [15]; 24.7 µM (inactive) in assay [16]; 28.3 µM (inactive) in assay [17]; 16.9 µM (inactive) in assay [18]. For the same molecule, the GI50 was 20.3 µM (inactive) in [19] and 17.6 µM (inactive) in assay [20].
For `CCCC(=O)OCC1OC(n2cc(F)c(=O)[nH]c2=O)CC1O` (stereo not given), the GI50 in [1] was 3.84 µM (inactive); in assay [2], > 8.09 µM (inactive); in [3], 0.0871 µM (active); in assay [4] it was 0.221 µM (active); in assay [5], 2.22 µM (inactive); in [6], 0.0489 µM (active). The GI50 in assay [7] is 1.26 µM (inactive); in assay [8], 0.255 µM (active); in [9], 0.0356 µM (active); in assay [10], 0.0306 µM (active); in assay [11], > 8.55 µM (inactive); in assay [12], 1.45 µM (inactive). In addition, the GI50 in assay [13] is > 10 µM (inactive); in assay [14] it was 0.126 µM (active); in assay [15], > 8.11 µM (inactive); in assay [16], > 10 µM (inactive); in assay [17] it was 0.00381 µM (active); in assay [18], > 10 µM (inactive). In addition, the results for the GI50 in assay [19] and in assay [20] were 0.094 µM (active) and 0.337 µM (active), respectively.
Consider `CC1=C(C(=O)Nc2cccc3c2C(=O)NC3=O)CC(C(=O)Nc2cccc3c2C(=O)NC3=O)=C(C)N1`, for which the GI50 was > 100 µM (inactive) in assay [1]; > 100 µM (inactive) in assay [2]; 88.3 µM (inactive) in assay [3]; > 100 µM (inactive) in assay [4]; 40.7 µM (inactive) in [5]; > 100 µM (inactive) in assay [6]. For the same molecule, the GI50 in assay [7], in assay [8], in assay [9], in [10], in assay [11] and in assay [12] was > 100 µM (inactive) throughout. The GI50 in assay [13] is > 100 µM (inactive); in assay [14], > 100 µM (inactive); in [15], > 100 µM (inactive); in assay [16] it was > 100 µM (inactive); in assay [17] it was 95.5 µM (inactive); in assay [18], > 100 µM (inactive). Moreover, the GI50 in assay [19] and in assay [20] was > 100 µM (inactive) each time.
For `COc1cc([C@@H]2c3cc4c(cc3[C@@H](Nc3ccccc3C(=O)c3ccccc3)[C@H]3COC(=O)[C@H]23)OCO4)cc(OC)c1OC`, the GI50 in assay [1] was 0.31 µM (active); in [2] it was 0.836 µM (active); in assay [3], 0.849 µM (active); in [4] it was 0.475 µM (active); in assay [5] it was 0.472 µM (active); in assay [6], 0.753 µM (active). In addition, the GI50 was > 100 µM (inactive) in assay [7]; 1.82 µM (inactive) in assay [8]; 0.347 µM (active) in assay [9]; 0.855 µM (active) in [10]; 0.38 µM (active) in assay [11]; 0.316 µM (active) in assay [12]. Also, the GI50 in assay [13] was > 27.2 µM (inactive); in [14], 0.362 µM (active); in assay [15], 0.885 µM (active); in assay [16] it was > 54.6 µM (inactive); in assay [17], 2.36 µM (inactive); in [18], 0.3 µM (active). Moreover, the values for the GI50 in [19] and in [20] were 0.776 µM (active) and 0.618 µM (active), respectively.
`O=P(O)(O)c1ccc(-c2ccc(I)cc2)cc1`: the GI50 in assay [1] was > 100 µM (inactive); in assay [2], > 100 µM (inactive); in assay [3], 65 µM (inactive); in assay [4], > 100 µM (inactive); in assay [5] it was > 100 µM (inactive); in assay [6], > 100 µM (inactive). In addition, the GI50 in assay [7], in assay [8], in [9], in [10], in [11] and in assay [12] was > 100 µM (inactive) each time. Further, the GI50 in [13], in assay [14], in assay [15], in assay [16], in assay [17] and in assay [18] was > 100 µM (inactive) each time. Moreover, the GI50 in [19] and in [20] was > 100 µM (inactive) in each case.
Consider `Cc1ccc(/C=C2\CNC/C(=C\c3ccc(C)cc3)C2=O)cc1`, for which the GI50 in assay [1] is 1.87 µM (inactive); in [2] it was 1.9 µM (inactive); in assay [3] it was 22.9 µM (inactive); in assay [4], 2.43 µM (inactive); in assay [5], 2.13 µM (inactive); in assay [6], 2.83 µM (inactive). Besides, the GI50 in assay [7] was 5.48 µM (inactive); in assay [8], 4.48 µM (inactive); in [9], 0.689 µM (active); in assay [10], 2.53 µM (inactive); in assay [11], 2.22 µM (inactive); in assay [12], 2.49 µM (inactive). Also, the GI50 is 2.34 µM (inactive) in assay [13]; 2.04 µM (inactive) in [14]; 3.87 µM (inactive) in assay [15]; 3.92 µM (inactive) in assay [16]; 1.67 µM (inactive) in [17]; 1.05 µM (active) in [18]. Besides, the GI50 in assay [19] was 1.77 µM (inactive); in [20] it was 1.35 µM (inactive).
In the case of `C=CCN(C(C)=O)c1cc(OCc2ccccc2)c2c(c1)c(C)cn2S(=O)(=O)c1ccccc1`, the GI50 in [1] was 4.08 µM (inactive); in assay [2], 10 µM (inactive); in assay [3], 6.18 µM (inactive); in [4] it was 4.37 µM (inactive); in [5], 3.78 µM (inactive); in assay [6], 4.06 µM (inactive). The GI50 was 39.6 µM (inactive) in [7]; 9.75 µM (inactive) in [8]; 4.11 µM (inactive) in assay [9]; 5.37 µM (inactive) in assay [10]; 2.67 µM (inactive) in assay [11]; 4.66 µM (inactive) in assay [12]. Besides, the GI50 is 5.42 µM (inactive) in assay [13]; 7.1 µM (inactive) in [14]; 11.8 µM (inactive) in assay [15]; 8.85 µM (inactive) in [16]; 22.1 µM (inactive) in assay [17]; 3.85 µM (inactive) in assay [18]. Besides, the GI50 in assay [19] was 2.86 µM (inactive); in assay [20] it was 6.21 µM (inactive).
With `O=C1C(Br)=CC2(C=C1Br)CCNC1=C2C(=O)c2cccnc2C1=O`, the GI50 in [1] is 4.65 µM (inactive); in assay [2] it was 9.18 µM (inactive); in [3], 10.7 µM (inactive); in assay [4], 3.77 µM (inactive); in assay [5], 16.4 µM (inactive); in assay [6], 14.8 µM (inactive). In addition, the GI50 in [7] was 19.8 µM (inactive); in assay [8], 11.4 µM (inactive); in assay [9], 6.22 µM (inactive); in [10] it was 13.3 µM (inactive); in assay [11] it was 5.69 µM (inactive); in [12], 1.77 µM (inactive). Also, the GI50 in [13] is 17.2 µM (inactive); in assay [14], 3.89 µM (inactive); in [15], 17.4 µM (inactive); in assay [16], 15 µM (inactive); in assay [17], 18 µM (inactive); in assay [18], 16.1 µM (inactive). Moreover, the GI50 in assay [19] is 17.5 µM (inactive); in assay [20], 15.3 µM (inactive).
Take `C=CCc1[nH]c2c(OCc3ccccc3)cc(N(CC=C)C(C)=O)cc2c1C`: the GI50 in [1] is 13 µM (inactive); in assay [2], 14.4 µM (inactive); in [3] it was 10.7 µM (inactive); in [4] it was 11.8 µM (inactive); in assay [5], 15.2 µM (inactive); in [6], 13.4 µM (inactive). The GI50 is 16.4 µM (inactive) in assay [7]; 14.1 µM (inactive) in assay [8]; 22.3 µM (inactive) in [9]; 12.2 µM (inactive) in assay [10]; 5.77 µM (inactive) in assay [11]; 14.4 µM (inactive) in assay [12]. For the same molecule, the GI50 is 8.79 µM (inactive) in assay [13]; 14 µM (inactive) in [14]; 14.1 µM (inactive) in [15]; 8.45 µM (inactive) in assay [16]; 15.1 µM (inactive) in [17]; 13.3 µM (inactive) in assay [18]. Further, the GI50 in [19] was 9.08 µM (inactive); in assay [20], 14.2 µM (inactive).
